Reference: the NIST ThermoML archive (doi:10.1021/je060271a)
± gives the expanded uncertainty stated by the source.

Settings: 323.15 K, Liquid, Vibrating tube method

CCCCC(=O)OCC(COC(=O)CCCC)(COC(=O)CCCC)COC(=O)CCCC [pentaerythritol tetrapentanoate]
Settings	mass density [kg/m3]
2620 kPa	996.4 ± 1.2
2660.6 kPa	996.5 ± 1.2
2696.9 kPa	996.5 ± 1.2
2718.7 kPa	996.6 ± 1.2
2740.2 kPa	996.6 ± 1.2
2766.8 kPa	996.6 ± 1.2
2789.3 kPa	996.7 ± 1.2
2812.2 kPa	996.6 ± 1.2
2835.1 kPa	996.5 ± 1.2
2863.3 kPa	996.6 ± 1.2
2886.9 kPa	996.7 ± 1.2
2911 kPa	996.7 ± 1.2
2989.9 kPa	996.7 ± 1.2
3015.4 kPa	996.6 ± 1.2
3041 kPa	996.8 ± 1.2
3072.2 kPa	996.8 ± 1.2
3098.9 kPa	996.7 ± 1.2
3127.4 kPa	996.8 ± 1.2
3156.2 kPa	996.9 ± 1.2
3188.1 kPa	996.9 ± 1.2
3211.7 kPa	996.9 ± 1.2
3262.5 kPa	996.8 ± 1.2
3273.9 kPa	997 ± 1.2
3286 kPa	997.1 ± 1.2
3299.4 kPa	997 ± 1.2
3310.7 kPa	996.9 ± 1.2
3322.8 kPa	997 ± 1.2
3337.8 kPa	996.9 ± 1.2
3347.6 kPa	997 ± 1.2
3361.4 kPa	997.1 ± 1.2
3373 kPa	997 ± 1.2
3399.5 kPa	997 ± 1.2
3411.5 kPa	997.1 ± 1.2
3423.8 kPa	997.1 ± 1.2
3438.5 kPa	997.1 ± 1.2
3453.3 kPa	997.1 ± 1.2
3522.2 kPa	997 ± 1.2
3637.3 kPa	997.2 ± 1.2
3714.9 kPa	997.3 ± 1.2
3733.1 kPa	997.2 ± 1.2
3751.4 kPa	997.3 ± 1.2
3769.8 kPa	997.4 ± 1.2
3791.1 kPa	997.3 ± 1.2
3809.5 kPa	997.4 ± 1.2
3828.4 kPa	997.3 ± 1.2
3846.7 kPa	997.3 ± 1.2
3869.1 kPa	997.3 ± 1.2
3887.6 kPa	997.3 ± 1.2
3909.9 kPa	997.3 ± 1.2
3929 kPa	997.5 ± 1.2
3947.9 kPa	997.4 ± 1.2
3967.4 kPa	997.4 ± 1.2
3987.2 kPa	997.5 ± 1.2
4010 kPa	997.4 ± 1.2
4029.3 kPa	997.5 ± 1.2
4049 kPa	997.5 ± 1.2
4072.7 kPa	997.4 ± 1.2
4092.3 kPa	997.5 ± 1.2
4112.7 kPa	997.6 ± 1.2
4137.3 kPa	997.5 ± 1.2
4158.1 kPa	997.5 ± 1.2
4179.1 kPa	997.6 ± 1.2
4200.2 kPa	997.6 ± 1.2
4225 kPa	997.6 ± 1.2
4246.8 kPa	997.7 ± 1.2
4268.4 kPa	997.5 ± 1.2
4290.2 kPa	997.6 ± 1.2
4316 kPa	997.7 ± 1.2
4337.7 kPa	997.6 ± 1.2
4359.8 kPa	997.7 ± 1.2
4382.3 kPa	997.8 ± 1.2
4409 kPa	997.7 ± 1.2
4431.7 kPa	997.7 ± 1.2
4454.9 kPa	997.7 ± 1.2
4478.1 kPa	997.8 ± 1.2
4506.5 kPa	997.9 ± 1.2
4529.8 kPa	997.9 ± 1.2
4554.2 kPa	997.9 ± 1.2
4579 kPa	997.8 ± 1.2
4607.9 kPa	998 ± 1.2
4632.1 kPa	997.9 ± 1.2
4657.2 kPa	998 ± 1.2
4688.4 kPa	997.9 ± 1.2
4714.7 kPa	997.9 ± 1.2
4741.5 kPa	998 ± 1.2
4773.2 kPa	998 ± 1.2
4800.4 kPa	998 ± 1.2
4827.4 kPa	998 ± 1.2
4855.4 kPa	997.9 ± 1.2
4889.5 kPa	998.1 ± 1.2
4918.2 kPa	998.1 ± 1.2
4946.4 kPa	998.1 ± 1.2
4975.1 kPa	998.2 ± 1.2
4978.1 kPa	998.3 ± 1.2
4995.6 kPa	998.2 ± 1.2
4997.5 kPa	998.3 ± 1.2
5038.8 kPa	998.1 ± 1.2
5039.2 kPa	998.3 ± 1.2
5039.4 kPa	998.2 ± 1.2
5040 kPa	998.2 ± 1.2
5040.7 kPa	998.2 ± 1.2
5041.6 kPa	998.2 ± 1.2
5042.1 kPa	998.1 ± 1.2
5042.6 kPa	998.2 ± 1.2
5044 kPa	998.2 ± 1.2
5052.3 kPa	998.3 ± 1.2
5059.4 kPa	998.3 ± 1.2
5066.5 kPa	998.4 ± 1.2
5073.8 kPa	998.2 ± 1.2
5082.4 kPa	998.2 ± 1.2
5089.7 kPa	998.2 ± 1.2
5097 kPa	998.3 ± 1.2
5105.8 kPa	998.3 ± 1.2
5113.1 kPa	998.3 ± 1.2
5120.5 kPa	998.3 ± 1.2
5128 kPa	998.3 ± 1.2
5134.7 kPa	998.4 ± 1.2
5142.3 kPa	998.3 ± 1.2
5150.8 kPa	998.3 ± 1.2
5158.4 kPa	998.2 ± 1.2
5166.2 kPa	998.2 ± 1.2
5174.9 kPa	998.3 ± 1.2
5182.5 kPa	998.3 ± 1.2
5189.9 kPa	998.3 ± 1.2
5197.3 kPa	998.3 ± 1.2
5206 kPa	998.3 ± 1.2
5213.8 kPa	998.3 ± 1.2
5221.7 kPa	998.3 ± 1.2
5229.5 kPa	998.3 ± 1.2
5238.5 kPa	998.5 ± 1.2
5246.1 kPa	998.3 ± 1.2
5254.1 kPa	998.4 ± 1.2
5261.5 kPa	998.4 ± 1.2
5270.5 kPa	998.3 ± 1.2
5278.7 kPa	998.4 ± 1.2
5287.8 kPa	998.4 ± 1.2
5295.3 kPa	998.4 ± 1.2
5303 kPa	998.5 ± 1.2
5312.6 kPa	998.3 ± 1.2
5320.7 kPa	998.4 ± 1.2
5329.2 kPa	998.5 ± 1.2
5336.8 kPa	998.3 ± 1.2
5345.1 kPa	998.5 ± 1.2
5352.9 kPa	998.5 ± 1.2
5362.7 kPa	998.5 ± 1.2
5370.9 kPa	998.4 ± 1.2
5379 kPa	998.5 ± 1.2
5388.7 kPa	998.4 ± 1.2
5397.1 kPa	998.5 ± 1.2
5405.1 kPa	998.5 ± 1.2
5413.1 kPa	998.3 ± 1.2
5422.9 kPa	998.5 ± 1.2
5431 kPa	998.5 ± 1.2
5439.2 kPa	998.5 ± 1.2
5449.6 kPa	998.4 ± 1.2
5457.5 kPa	998.4 ± 1.2
5465.6 kPa	998.5 ± 1.2
5473.9 kPa	998.4 ± 1.2
5483.8 kPa	998.6 ± 1.2
5491.6 kPa	998.5 ± 1.2
5499.5 kPa	998.6 ± 1.2
